Source: patent US10457663B2, “Pyrazol-pyridine derivatives” (Hoffmann-La Roche Inc., priority 2016, dated 2019)

Key:
human EAAT3 = molecular target: T1, human EAAT3 (Homo sapiens, UniProt P43005); experiment: FLIPR Membrane Potential (FMP) assay; assay type: cell-based; details: HEK-293 cells stably expressing human EAAT3; L-glutamate as agonist at EC80; antagonist applied 15 min before; Kb by Cheng-Prusoff from IC50
T1 construct: expressed in transfected cells; host or cells: HEK-293
T1 sequence (P43005 1-524): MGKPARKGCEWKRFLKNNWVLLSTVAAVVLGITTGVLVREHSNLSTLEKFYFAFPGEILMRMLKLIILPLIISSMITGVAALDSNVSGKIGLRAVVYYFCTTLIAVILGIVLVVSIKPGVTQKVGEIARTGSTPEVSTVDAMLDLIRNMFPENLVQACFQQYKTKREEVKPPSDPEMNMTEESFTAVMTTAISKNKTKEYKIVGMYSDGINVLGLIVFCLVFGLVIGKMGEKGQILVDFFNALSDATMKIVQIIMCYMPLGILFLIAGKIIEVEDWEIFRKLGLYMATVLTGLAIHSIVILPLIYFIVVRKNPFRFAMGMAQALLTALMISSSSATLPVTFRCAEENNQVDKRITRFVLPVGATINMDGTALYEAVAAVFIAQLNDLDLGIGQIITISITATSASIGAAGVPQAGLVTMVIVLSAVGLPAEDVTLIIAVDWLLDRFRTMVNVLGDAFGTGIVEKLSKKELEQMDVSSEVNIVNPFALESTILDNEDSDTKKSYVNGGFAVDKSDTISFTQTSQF
Description: The FLIPR Membrane Potential (FMP) assay
HEK-293 cells stably expressing human EAAT3 were seeded at 55 000 cells/well in growth medium (DMEM glutamate free (Invitrogen 11960-044), 1% Pen Strep (10 ml/l GIBCO BRL N^o 15140-023), 10% FCS non dialysed heat inactivated, 5 mg/l puromycin) in poly-D-lysine treated 96-well black microtiter plates with clear-bottom. After 24 h, the growth medium was removed and 100 μl/well of Krebs buffer (140 mM NaCl, 4.7 mM KCl, 2.5 mM CaCl2), 1.2 mM MgCl2, 11 mM HEPES, 10 mM D-glucose, pH=7.4) added. The cells were then loaded by adding 100 μl/well FMP assay dye (FLIPR Membrane Potential assay reagent, Molecular Devices). The 96-well plates were then incubated at 37° C. for 1 h. The depolarization of the cells will cause more dye to enter in the cells, where it will bind to intracellular proteins and lipids and cause an increase in the fluorescence signal. Antagonist potency at human EAAT3 was determined by using L-glutamate as agonist at a concentration which gives 80% of the maximum response. The antagonists were applied 15 min before the application of the agonist L-glutamate. The assays were performed at room temperature and measurements done by using a Fluorometric Imaging Plate Reader (FLIPR, Molecular Devices) and filter #2. Responses were measured as peak increase in fluorescence minus basal (i.e. fluorescence without addition of L-glutamate). Kb was determined using the Cheng-Prusoff equation Kb=IC50/[1+(A/EC50)], where IC50 is the concentration of the antagonist producing 50% inhibition, A is the concentration of the agonist against which the IC50 is being determined (at EC80) and EC50 is the concentration of the agonist producing 50% […].

Row | SMILES | melting point [°C] | Kb (human EAAT3) [nM]
1 | CC(C)(CO)NC(=O)c1cc(-c2ccc(Cl)cc2)nc(-c2ccnn2C(C)(C)C)c1 [Example 55, 2-(2-tert-Butyl-pyrazol-3-yl)-6-(4-chlorophenyl)-N-(1-hydroxy-2-methyl-propan-2-yl)-pyridine-4-carboxamide] | 177 | 73
2 | CC(C)(C#N)NC(=O)c1cc(-c2ccc(Cl)cc2)nc(-c2ccnn2C(C)(C)C)c1 [Example 56, 2-(2-tert-Butyl-pyrazol-3-yl)-6-(4-chlorophenyl)-N-(2-cyano-propan-2-yl)-pyridine-4-carboxamide] | 230 | 210
